Structures are written as SMILES. Values after ≈ are worked out from the molar mass of the structure shown.

The subject of this experiment is WI-38 VA13. As to the kind of experiment: Effective concentration required to cause cytotoxicity to tumorigenic cell line WI-38 VA-13 subline 2RA. In kind it is functional, cell-based. To be noted: Homo sapiens.
In turn, `CC(=O)c1sc2nc(-c3cccs3)ccc2c1N` displayed a concentration giving a half-maximal response (EC50) of 2.7 µg/mL (≈ 9.84 µM). Under `CCOC(=O)c1sc2nc(-c3cccs3)ccc2c1N` stands > 4 µg/mL; under `Nc1c(C(=O)c2ccc(Br)cc2)sc2nc(-c3cccs3)ccc12`, 2.8 µg/mL (≈ 6.74 µM).

Take `Nc1c(C(=O)c2ccc(F)c(F)c2)sc2nc(-c3cccs3)ccc12`: the EC50 was > 4 µg/mL. `CCC(=O)c1sc2nc(-c3cccs3)ccc2c1N` displayed a 50% effective concentration (EC50) of 0.89 µg/mL (≈ 3.09 µM). Under `Nc1c(C(=O)c2cccc(F)c2)sc2nc(-c3cccs3)ccc12` stands 0.025 µg/mL (≈ 0.0705 µM).

In turn, `COc1cccc(C(=O)c2sc3nc(-c4cccs4)ccc3c2N)c1` yielded an EC50 of 0.03 µg/mL (≈ 0.0819 µM). This EC50 and that of the molecule before are within 1.5-fold of each other. The same measure for `Nc1c(C(=O)c2ccc(F)cc2F)sc2nc(-c3cccs3)ccc12`: 2.3 µg/mL (≈ 6.18 µM); for `Nc1c(C(=O)c2ccccc2)sc2nc(-c3cccs3)ccc12`: 0.09 µg/mL (≈ 0.268 µM).

Molecule `COc1ccc(OC)c(C(=O)c2sc3nc(-c4cccs4)ccc3c2N)c1` came in with a concentration for a half-maximal effect (EC50) of 0.079 µg/mL (≈ 0.199 µM).

Turning to `COc1ccc(C(=O)c2sc3nc(-c4cccs4)ccc3c2N)cc1`, a half-maximal response (EC50) required 0.77 µg/mL (≈ 2.1 µM). The same measure for `COc1ccc(C(=O)c2sc3nc(-c4cccs4)ccc3c2N)c(OC)c1`: 0.52 µg/mL (≈ 1.31 µM); for `Nc1c(C(=O)c2ccc(F)cc2)sc2nc(-c3cccs3)ccc12`: 1.8 µg/mL (≈ 5.08 µM); for `Nc1c(C(=O)c2cccc(Br)c2)sc2nc(-c3cccs3)ccc12`: 0.5 µg/mL (≈ 1.2 µM). The same measure for `CCOC(=O)c1oc2cc(-c3ccccc3)cc(OC)c2c1C`: > 4 µg/mL; for `CN(C)c1c(C(=O)c2ccccc2)sc2nc(-c3cccs3)ccc12`: > 4 µg/mL. On to `Nc1c(C(=O)c2cccc([N+](=O)[O-])c2)sc2nc(-c3cccs3)ccc12`, for which it took 0.15 µg/mL (≈ 0.393 µM) to reach a half-maximal effect (EC50). The molecule `CC(C)(C)C(=O)c1sc2nc(-c3cccs3)ccc2c1N` gave an EC50 of 0.57 µg/mL (≈ 1.8 µM). This EC50 lies about 3.8-fold higher than the previous one. The same measure for `COc1ccccc1C(=O)c1sc2nc(-c3cccs3)ccc2c1N`: 0.059 µg/mL (≈ 0.161 µM). The same measure for `CNc1c(C(=O)c2ccccc2)sc2nc(-c3cccs3)ccc12`: 0.42 µg/mL (≈ 1.2 µM).

Values taken from ChEMBL document CHEMBL1147459, “Thienopyridine and benzofuran derivatives as potent anti-tumor agents possessing different structure-activity relationships” (Bioorg Med Chem Lett, 2004).
